Data set [1] in a line: Selectivity index, ratio of CC50 for cytotoxicity against human HepG2 cells to IC50 for […] activity against Plasmodium falciparum 3D7. In kind it is toxicity, cell-based. Conditions: read-out: Ratio CC50/IC50.
The test system of data set [2] is Plasmodium falciparum. Briefly: Inhibition of Plasmodium falciparum 3D7 cytochrome bc1 oxidoreductase using decylubiquinol as substrate at 70 uM relative to control.
A short description of data set [3]: Cytotoxicity against human HepG2 cells assessed as reduction in cell viability incubated for 24 hrs by MTT assay. The data set is classed as toxicity, cell-based.
The subject of data set [4] is Plasmodium falciparum. Briefly: Antiplasmodial activity against Plasmodium falciparum 3D7 infected in erythrocytes (unknown origin) assessed as inhibition of parasite growth by SYBR green staining based fluorescence assay. In kind it is functional, organism-based. The settings on record: 3D7, Erythrocyte.
Data set [5] can be described thus: Inhibition of Plasmodium falciparum plasmepsin IV assessed as substrate cleavage preincubated with enzyme for 5 mins followed by substrate addition and measured immediately by spectrophotometric analysis.
For data set [6], the system named is Plasmodium falciparum. Briefly: Antiplasmodial activity against Plasmodium falciparum RKL-9 stage I-V gametocytes assessed as reduction in parasitemia incubated for 72 hrs by giemsa staining based analysis. The settings on record: RKL-9, 72 h.
In data set [7] the test system is Plasmodium berghei. Briefly: Antimalarial activity against GFP-expressing Plasmodium berghei ANKA infected in mouse assessed as survival rate at 50 mg/kg, sc pre-infected for 2 hrs followed by compound addition. The data set is classed as functional.
The nature of data set [8]: Inhibition of Plasmodium falciparum plasmepsin II assessed as substrate cleavage preincubated with enzyme for 5 mins followed by substrate addition and measured immediately by spectrophotometric analysis.
Data set [9] concerns Plasmodium falciparum. Briefly: Antiplasmodial activity against multidrug resistant Plasmodium falciparum Dd2 infected in erythrocytes (unknown origin) incubated for 72 hrs by SYBR green I staining based fluorescence assay. In kind it is functional, organism-based. Conditions: Dd2, Erythrocyte.
The subject of data set [10] is Plasmodium berghei. The data set can be described thus: Antimalarial activity against chloroquine resistant Plasmodium berghei NK-65 infected RBC infected in Swiss albino mouse assessed as survival rate at 100 mg/kg, sc pre-infected for 48 hrs followed by compound addition for 4 days in the presence of artemisinin. The data set is classed as functional. The settings on record: time 4 day.

Data set [11] in a line: Cytotoxicity against human PBMC cells assessed as inhibition of cell growth incubated for 24 hrs by Celltiter-Glo assay. The data set is classed as toxicity, cell-based.
Data set [12] in a line: Inhibition of Plasmodium falciparum plasmepsin X.
Data set [13] has as its system Plasmodium falciparum. The data set can be described thus: Antiplasmodial activity against chloroquine sensitive Plasmodium falciparum D6 infected in erythrocytes (unknown origin) incubated for 72 hrs by SYBR green I staining based fluorescence assay. In kind it is functional, organism-based. Conditions: D6, Erythrocyte.
The test system of data set [14] is Plasmodium berghei. The data set can be described thus: Antimalarial activity against GFP-expressing liver stage Plasmodium berghei ANKA sporozoites infected in human HepG2 cells assessed as inhibition of parasite growth incubated for 2 days by imaging analysis. The data set is classed as functional, organism-based. The settings on record: HepG2, 48 h.
Data set [15] relates to Plasmodium falciparum. Briefly: Antiplasmodial activity against chloroquine sensitive Plasmodium falciparum 3D7 assessed as reduction in [3H]-hypoxanthine incorporation by liquid scintillation beta counter analysis. In kind it is functional, organism-based.
The nature of data set [16]: Cytotoxicity against human U-937 cells assessed as inhibition of cell growth incubated for 24 hrs by Celltiter-Glo assay. In kind it is toxicity, cell-based.
Data set [17] in a line: Inhibition of Plasmodium falciparum plasmepsin V.
Data set [18] has as its system Plasmodium falciparum. Briefly: Antiplasmodial activity against Plasmodium falciparum 3D7 assessed as inhibition of parasite growth incubated for 48 hrs by SYBR green I staining based fluorescence assay. The data set is classed as functional, organism-based. The settings on record: 3D7, 48 h.
The test system of data set [19] is Plasmodium falciparum. Briefly: Antiplasmodial activity against chloroquine sensitive Plasmodium falciparum 3D7 infected in erythrocytes (unknown origin) assessed as inhibition of parasite growth incubated for 90 hrs by SYBR green staining based fluorescence assay. In kind it is functional, organism-based. The settings on record: 3D7, Erythrocyte.
The subject of data set [20] is Plasmodium falciparum. The data set can be described thus: Antiplasmodial activity against chloroquine resistant Plasmodium falciparum W2 infected in erythrocytes (unknown origin) assessed as inhibition of parasite growth incubated for 90 hrs by SYBR green staining based fluorescence assay. In kind it is functional, organism-based. Conditions: W2, Erythrocyte.
For data set [21], the system named is Plasmodium falciparum. Briefly: Antiplasmodial activity against chloroquine resistant Plasmodium falciparum 7GB assessed as inhibition of parasite growth incubated for 48 hrs by SYBR green I staining based fluorescence assay. In kind it is functional, organism-based.

Results on 11 compounds are retold here after ChEMBL document CHEMBL5241051, “Phthalimide analogs for antimalarial drug discovery” (RSC Med Chem, 2021).

The structures appear in SMILES notation. Some results are limits rather than exact numbers.

As to `COc1ccc(N2C(=O)c3cccc(N)c3C2=O)cc1`, in data set [1], the selectivity ratio was > 36. In data set [2], this compound had an inhibition of 74%. In data set [3], the CC50 at 24 h was > 250 µM. The IC50 in data set [4] was 4.2 µM.

Consider `CC(C)[C@H](C(=O)N[C@H](Cc1ccccc1)[C@@H](O)CN1CCN(C[C@H](O)[C@@H](Cc2ccccc2)NC(=O)[C@@H](C(C)C)N2C(=O)c3ccccc3C2=O)CC1)N1C(=O)c2ccccc2C1=O`, for which the inhibition constant (Ki) in data set [5] was determined as 3300 nM.

For `Cc1ccc2c(c1)C(=O)N(C(Cc1ccccc1)C(=O)NC(Cc1ccccc1)C(O)CN1CCN(CC(O)C(Cc3ccccc3)NC(=O)C(Cc3ccccc3)N3C(=O)c4ccc(C)cc4C3=O)CC1)C2=O` (stereo not drawn), the IC50 came out at 1680 nM in [6]; 600 nM in data set [9]; 910 nM in [13]; 2100 nM in data set [14]; 1310 nM in data set [15]. The Survival in data set [7] came out at 20 days; in data set [10], 15 days. The Ki amounted to 112 nM in [8], 3.83 µM in data set [12], 252 nM in data set [5] and 530 nM in data set [17]. For the same compound, the cytotoxic concentration (CC50) at 24 h worked out at 11.1 µM in data set [11] and 26.4 µM in data set [16].

As for `CC(C)[C@@H](C(=O)N[C@H](Cc1ccccc1)[C@@H](O)CN1CCN(Cc2ccc(Br)cc2)CC1)N1C(=O)c2ccccc2C1=O`, the IC50 in [18] was 1250 nM.

On to `CC(C)CC(c1nc2ccccc2n1Cc1cnnn1-c1ccccc1)N1C(=O)c2ccccc2C1=O` (stereo not drawn), for which the figures for the IC50 in [19] and in data set [20] were 900 nM and 700 nM, respectively.

Turning to `CC(C)(C)OC(=O)N[C@H](Cc1ccccc1)[C@@H](O)CN1CCC(N2CCCCC2)CC1`, the IC50 in [18] was 1160 nM; in data set [21], 2990 nM.

Turning to `O=C(N[C@H](Cc1ccccc1)[C@@H](O)CN1CCN(Cc2ccc(F)cc2)CC1)[C@@H](Cc1ccccc1)N1C(=O)c2ccccc2C1=O`, the figures for the IC50 in data set [18] and in data set [21] were 1330 nM and 2990 nM, respectively.

Consider `CC(C)CC(c1nc2ccccc2n1Cc1cnn[nH]1)N1C(=O)c2ccccc2C1=O` (stereo not drawn), for which the results for the IC50 in [19] and in [20] were 700 nM and 900 nM, respectively.

On to `O=C(N[C@H](Cc1ccccc1)[C@@H](O)CN1CCN(C[C@H](O)[C@@H](Cc2ccccc2)NC(=O)[C@@H](Cc2ccccc2)N2C(=O)c3ccccc3C2=O)CC1)[C@@H](Cc1ccccc1)N1C(=O)c2ccccc2C1=O`, for which the results for the IC50 in [18] and in [21] were 1300 nM and 2990 nM, respectively.

As to `CC[C@H](C)[C@@H](C(=O)N[C@H](Cc1ccccc1)[C@@H](O)CN1CCN(C[C@H](O)[C@@H](Cc2ccccc2)NC(=O)[C@H]([C@@H](C)CC)N2C(=O)c3ccccc3C2=O)CC1)N1C(=O)c2ccccc2C1=O`, in [8], the Ki was found to be 990 nM.

Regarding `COc1ccc(N2C(=O)c3cccc(NCc4ccccc4)c3C2=O)cc1`, the selectivity ratio in [1] is > 59. In addition, the CC50 at 24 h in data set [3] was > 250 µM. Besides, the IC50 in [4] was determined as 6.8 µM.
